Source: patent US20240025862A1, “SUBSTITUTED N-PHENYLURACILS AND SALTS THEREOF, AND USE THEREOF AS HERBICIDAL ACTIVE SUBSTANCES” (Bayer Aktiengesellschaft, priority 2020, published 2024)

How the values were obtained:
Format in all cases: in vivo
Oryza sativa (ORYSA) = test: Post-emergence crop plant compatibility, greenhouse pot test (also comparative test C); settings: for Post-emergence action against ORYSA (crop plant compatibility): vs untreated controls
How it was run: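 Rice and other crops sprayed post-emergence at one-leaf stage (2–3 weeks after sowing) with WP or EC formulations plus 0.5% additive at 600 l/ha water. Visual rating about 3 weeks later versus untreated controls (100% = dead, 0% = like control); suffixes a–c denote different doses.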

[1] = test system: Polygonum convolvulus (POLCO); test: Post-emergence herbicidal action, greenhouse pot test
How it was run: (§1)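 Greenhouse-grown weeds in sandy loam were sprayed post-emergence at the one-leaf stage, 2–3 weeks after sowing. Compounds were formulated as WP or EC in water with 0.5% additive at 600 l/ha, at rates of 20 g/ha or less. Visual rating after about 3 weeks used a scale from 0% (like untreated control) to 100% (plants dead).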

Lolium rigidum (LOLRI) = test: as above; settings: dosage 20 g/ha
How it was run: as §1

Avena fatua (AVEFA) = test: as above; settings: 20 g/ha, rated visually after about 3 weeks vs untreated controls, 100% = plants have died
How it was run: as §1

[2] = test system: Amaranthus retroflexus (AMARE); test: as above; settings: rated visually after about 3 weeks vs untreated controls, 100% = plants have died
How it was run: as §1

Viola tricolor (VIOTR) = test: as above
How it was run: as §1

[3] = test system: Pharbitis purpurea (PHBPU); test: as above
How it was run: as §1

Veronica persica (VERPE) = test: as above
How it was run: as §1

[4] = test system: Abutilon theophrasti (ABUTH); test: as above; settings: rated visually after about 3 weeks vs untreated controls, 100% = plants have died
How it was run: as §1

[5] = test system: Triticum aestivum (TRZAS); test: Post-emergence crop plant compatibility, greenhouse pot test; settings: vs untreated controls
How it was run: (§2)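 Greenhouse-grown crop plants sprayed post-emergence at the one-leaf stage with WP or EC formulations plus 0.5% additive, at 600 l/ha water. Damage rated visually after about 3 weeks versus untreated controls (0% = like control, 100% = dead); suffixes a/b/c denote different dosages.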

Glycine max (GLXMA) = test: as above; settings: 1.25 g/ha
How it was run: as §2

Zea mays (ZEAMX) = test: as above; settings: 1.25 g/ha, vs untreated controls
How it was run: as §2

[6] = test system: Echinochloa crus-galli (ECHCG); test: Post-emergence herbicidal action, greenhouse pot test (also comparative test C)
How it was run: (§3)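 Green parts of one-leaf-stage plants are sprayed at 600 l/ha with formulated compound plus 0.5% additive, then kept under optimum greenhouse conditions for about 3 weeks. Damage is scored visually, where 100% means dead plants and 0% means no difference from controls.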

Setaria viridis (SETVI) = test: as above
How it was run: as §3

[7] = test system: Matricaria inodora (MATIN); test: as above
How it was run: as §3

[8] = test system: Alopecurus myosuroides (ALOMY); test: as above; settings: rated visually after about 3 weeks vs untreated controls, 100% = plants have died
How it was run: as §3

Cn1c(C(F)(F)F)cc(=O)n(-c2cc(Oc3ccccc3OCC(=O)OCc3ccccn3)c([N+](=O)[O-])cc2F)c1=O [I.6-276]
Post-emergence action against ORYSA (crop plant compatibility) (Oryza sativa (ORYSA); 1.25 g/ha): 0% | Post-emergence action against ORYSA (crop plant compatibility) (Oryza sativa (ORYSA); 5 g/ha): 10% | Post-emergence action against ORYSA in % (Oryza sativa (ORYSA); 20 g/ha, crop plant compatibility): 20% | Post-emergence action against POLCO in % ([1]; dosage 20 g/ha): 100% | Post-emergence action against LOLRI in % (Lolium rigidum (LOLRI)): 90% | Post-emergence action at 20 g/ha against AVEFA in % (Avena fatua (AVEFA)): 80% | Post-emergence action at 1.25 g/ha against AMARE in % ([2]; 1.25 g/ha): 100% | Post-emergence action at 5 g/ha against AMARE in % ([2]; 5 g/ha): 100% | Post-emergence action at 20 g/ha against AMARE in % ([2]; 20 g/ha): 100% | Post-emergence action against VIOTR (Viola tricolor (VIOTR); 1.25 g/ha): 100% | Post-emergence action against VIOTR (Viola tricolor (VIOTR); 5 g/ha): 100% | Post-emergence action against VIOTR (Viola tricolor (VIOTR); 20 g/ha): 100% | Post-emergence action against PHBPU in % ([3]; dosage 1.25 g/ha): 100% | Post-emergence action against PHBPU in % ([3]; dosage 5 g/ha): 100% | Post-emergence action against PHBPU in % ([3]; dosage 20 g/ha): 100% | Post-emergence action against VERPE (Veronica persica (VERPE); 5 g/ha): 100% | Post-emergence action against VERPE (Veronica persica (VERPE); 20 g/ha): 100% | Post-emergence action at 1.25 g/ha against ABUTH in % ([4]; 1.25 g/ha): 100% | Post-emergence action at 5 g/ha against ABUTH in % ([4]; 5 g/ha): 100% | Post-emergence action at 20 g/ha against ABUTH in % ([4]; 20 g/ha): 100% | Post-emergence action against TRZAS (crop plant compatibility) ([5]; 1.25 g/ha): 10% | Post-emergence action against TRZAS (crop plant compatibility) ([5]; 5 g/ha): 10% | Post-emergence action against GLXMA in % (Glycine max (GLXMA)): 20% | Post-emergence action against ZEAMX (crop plant compatibility) (Zea mays (ZEAMX)): 10% | Post-emergence action against ECHCG in % ([6]; dosage 5 g/ha): 90% | Post-emergence action against ECHCG in % ([6]; dosage 20 g/ha): 100% | Post-emergence action against SETVI (Setaria viridis (SETVI); 20 g/ha): 100% | Post-emergence action against SETVI in % (Setaria viridis (SETVI); dosage 1.25 g/ha): 100% | Post-emergence action against SETVI in % (Setaria viridis (SETVI); dosage 5 g/ha): 100% | Post-emergence action against MATIN in % ([7]; dosage 5 g/ha): 100% | Post-emergence action against MATIN in % ([7]; dosage 20 g/ha): 100% | Post-emergence action at 5 g/ha against ALOMY in % ([8]; 5 g/ha): 80% | Post-emergence action at 20 g/ha against ALOMY in % ([8]; 20 g/ha): 100%

CC(C#N)OC(=O)COc1ccccc1Oc1cc(-n2c(=O)cc(C(F)(F)F)n(C)c2=O)c(F)cc1Cl (centres unmarked) [I.7-177, 1-Cyanoethyl (2-{2-chloro-4-fluoro-5-[3-methyl-2,6-dioxo-4-(trifluoromethyl)-3,6-dihydropyrimidin-1(2H)-yl]phenoxy}phenoxy)acetate]
Post-emergence action against ORYSA (crop plant compatibility) (Oryza sativa (ORYSA); 1.25 g/ha): 0% | pest or weed control at 5 g/ha ([1]; Fallopia convolvulus, 504 h, dosage 5 g/ha, read-out: Post-emergence action against POLCO in %): 80% | pest or weed control at 20 g/ha ([1]; Fallopia convolvulus, 504 h, dosage 20 g/ha, read-out: Post-emergence action against POLCO in %): 100% | pest or weed control at 20 g/ha (Lolium rigidum (LOLRI); Lolium rigidum, 504 h, read-out: Post-emergence action against LOLRI in %): 80% | pest or weed control at 20 g/ha (Avena fatua (AVEFA); Avena fatua, 504 h, read-out: Post-emergence action at 20 g/ha against AVEFA in %): 80% | pest or weed control at 1.25 g/ha ([2]; Amaranthus retroflexus, 504 h, 1.25 g/ha, read-out: Post-emergence action at 1.25 g/ha against AMARE in %): 100% | pest or weed control at 5 g/ha ([2]; Amaranthus retroflexus, 504 h, 5 g/ha, read-out: Post-emergence action at 5 g/ha against AMARE in %): 100% | pest or weed control at 20 g/ha ([2]; Amaranthus retroflexus, 504 h, 20 g/ha, read-out: Post-emergence action at 20 g/ha against AMARE in %): 100% | pest or weed control at 1.25 g/ha (Viola tricolor (VIOTR); Viola tricolor, 504 h, 1.25 g/ha, read-out: Post-emergence action against VIOTR): 100% | pest or weed control at 5 g/ha (Viola tricolor (VIOTR); Viola tricolor, 504 h, 5 g/ha, read-out: Post-emergence action against VIOTR): 100% | pest or weed control at 20 g/ha (Viola tricolor (VIOTR); Viola tricolor, 504 h, 20 g/ha, read-out: Post-emergence action against VIOTR): 100% | pest or weed control at 1.25 g/ha ([3]; Ipomoea purpurea, 504 h, dosage 1.25 g/ha, read-out: Post-emergence action against PHBPU in %): 90% | pest or weed control at 5 g/ha ([3]; Ipomoea purpurea, 504 h, dosage 5 g/ha, read-out: Post-emergence action against PHBPU in %): 100% | pest or weed control at 20 g/ha ([3]; Ipomoea purpurea, 504 h, dosage 20 g/ha, read-out: Post-emergence action against PHBPU in %): 100% | pest or weed control at 1.25 g/ha (Veronica persica (VERPE); Veronica persica, 504 h, 1.25 g/ha, read-out: Post-emergence action against VERPE): 90% | pest or weed control at 5 g/ha (Veronica persica (VERPE); Veronica persica, 504 h, 5 g/ha, read-out: Post-emergence action against VERPE): 100% | pest or weed control at 20 g/ha (Veronica persica (VERPE); Veronica persica, 504 h, 20 g/ha, read-out: Post-emergence action against VERPE): 100% | pest or weed control at 1.25 g/ha ([4]; Abutilon theophrasti, 504 h, 1.25 g/ha, read-out: Post-emergence action at 1.25 g/ha against ABUTH in %): 100% | pest or weed control at 5 g/ha ([4]; Abutilon theophrasti, 504 h, 5 g/ha, read-out: Post-emergence action at 5 g/ha against ABUTH in %): 100% | pest or weed control at 20 g/ha ([4]; Abutilon theophrasti, 504 h, 20 g/ha, read-out: Post-emergence action at 20 g/ha against ABUTH in %): 100% | Post-emergence action against TRZAS (crop plant compatibility) ([5]; 1.25 g/ha): 0% | Post-emergence action against GLXMA in % (Glycine max (GLXMA)): 0% | pest or weed control at 5 g/ha ([6]; Echinochloa crus-galli, 504 h, dosage 5 g/ha, read-out: Post-emergence action against ECHCG in %): 100% | pest or weed control at 20 g/ha ([6]; Echinochloa crus-galli, 504 h, dosage 20 g/ha, read-out: Post-emergence action against ECHCG in %): 100% | pest or weed control at 20 g/ha (Setaria viridis (SETVI); Setaria viridis, 504 h, 20 g/ha, read-out: Post-emergence action against SETVI): 100% | pest or weed control at 1.25 g/ha (Setaria viridis (SETVI); Setaria viridis, 504 h, dosage 1.25 g/ha, read-out: Post-emergence action against SETVI in %): 100% | pest or weed control at 5 g/ha (Setaria viridis (SETVI); Setaria viridis, 504 h, dosage 5 g/ha, read-out: Post-emergence action against SETVI in %): 100% | pest or weed control at 1.25 g/ha ([7]; Tripleurospermum inodorum, 504 h, dosage 1.25 g/ha, read-out: Post-emergence action against MATIN in %): 80% | pest or weed control at 5 g/ha ([7]; Tripleurospermum inodorum, 504 h, dosage 5 g/ha, read-out: Post-emergence action against MATIN in %): 80% | pest or weed control at 20 g/ha ([7]; Tripleurospermum inodorum, 504 h, dosage 20 g/ha, read-out: Post-emergence action against MATIN in %): 80% | pest or weed control at 5 g/ha ([8]; Alopecurus myosuroides, 504 h, 5 g/ha, read-out: Post-emergence action at 5 g/ha against ALOMY in %): 90% | pest or weed control at 20 g/ha ([8]; Alopecurus myosuroides, 504 h, 20 g/ha, read-out: Post-emergence action at 20 g/ha against ALOMY in %): 100%
